Results on four molecules are retold here after EP0476658B1, “1-Phenyl-3-phenyl-2-propyne-1-ones” (MERRELL DOW PHARMACEUTICALS INC., priority 1990, dated 1992).

The subject of assay [1] is Rat PMNL. The assay can be described thus: Measurement of intracellular calcium (Fura-2) in fMLP-stimulated PMNL. The format is cell-based. The conditions noted are these: preincubation of PMNL with compound 15 minutes at 37°C, fMLP stimulus; second wave = influx of extracellular calcium. How it is done: (§1) Rat PMNL were obtained from exudates resulting from peritoneal injection of 6 mL of 8% sodium caseinate. Eighteen hours after injection rats were killed by carbon dioxide inhalation and the peritoneal cavity lavaged with Hank's balanced salt solution (HBSS). After concentration of the PMNL by centrifugation, contaminating erythrocytes were removed by hypotonic lysis. The PMNL were then washed twice by centrifugation (400 x g for 10 minutes) and resuspended in HBSS. Cell viability was greater than 90% by Trypan Blue exclusion and greater than 90% of the cells were PMNL by Wright-Giemsa stain.
Intracellular calcium levels were obtained using Fura-2 as fluorescent indicator (Grynkiewicz et al., 1985). Fura-2 was loaded into PMNL as the acetoxymethyl ester (Fura-2/AM) using the method of Korchak et al., (1988). Specifically, 1 X 10⁸ PMNL/mL were incubated in HBSS with 10 µM Fura-2/AM for 10 minutes at 37°C. The cells suspension was then diluted ten fold with HBSS and further incubated for another 20 minutes. The cells were then centrifuged (400 x g for 8 minutes at 25°C) and the PMNL (1 x 10⁷ cells/mL) resuspended in HBSS containing 1% bovine serum albumin. Cells were stored at room temperature and used within 3 hours.
Intracellular calcium level determinations were made using a dual wavelength spectrofluorometer (Photon Technology International, New Brunswick, NJ). […]
A general note: Calcium assays in cells follow changes in intracellular calcium, usually with a dye or a luminescent sensor.

The subject of assay [2] is Rat PMNL. The assay can be described thus: Superoxide anion (SOA) production by stimulated PMNL. The format is cell-based. How it is done:
as §1
Aliquots (50 µl) of a rat PMNL suspension (2 x 10⁷ cells/mL in HBSS) were incubated with 50 µl of HBSS containing vehicle (0.3% DMSO) or compound for 30 minutes at 37°C as above. One hundred microliters of buffer containing 5.98 mg/mL of cytochrome C (Sigma Type III) and 0.1 mg/mL catalase, plus the compounds where appropriate, were then added to each sample. A blank for spectrophotometric measurement, containing unstimulated cells in the presence of cytochrome C, catalase and SOD, was also prepared. […] Aliquots (200 µl) of supernatant were then transferred to a second, flat-well microtiter plate and measured spectrophotometrically at 550 nm. […]

In assay [3] the test system is Rat PMNL. As to the kind of experiment: Myeloperoxidase (MPO) release from stimulated PMNL. The format is cell-based. As to conditions: fMLP (with cytochalasin B), opsonized zymosan or ionomycin stimulation. As to the method: as §1
MPO release was determined using the MPO catalyzed oxidation of O-dianisidine. The experiments were carried out in 96-well microtiter plates (Webster and Henson, 1978). In each well, 50 microliter (µl) aliquots of a PMNL suspension (2 x 10⁷ cells/mL in HBSS) were incubated with 50 µl of HBSS containing vehicle (0.3% DMSO) or inhibitor for 30 minutes at 37°C. The final DMSO concentration never exceeded 0.3% and was constant throughout each experiment. […] The stimuli were added in 50 µl HBSS which also contained the compounds or vehicle, as appropriate, to avoid changing the inhibitor concentration. Cell activation was terminated by centrifugation of the plates at 600 x g for 5 minutes at 22°C. […] Absorbances of the samples were measured at 450 nm. […]

The subject of assay [4] is Mustard Oil-Induced Mouse Ear Edema. The assay can be described thus: Mustard oil-induced mouse ear edema. The format is in vivo. The conditions noted are these: 30 minutes prior to mustard oil, ear weight 30 minutes after, male CD-1 mice. How it is done: Charles River male CD-1 mice weighing 30-60 grams were divided into randomized groups. They were dosed i.p. for 30 minutes prior or orally 1 hour prior to application of 20 ul of mustard oil (10% isothiocyanate in acetone) to the right ear. After 30 minutes the mice were sacrificed and an 8 millimeter diameter circular punch biopsy of each ear was obtained and weighed. The difference between the left (control) and right (treated) ear weights were expressed as percent increase.

In assay [5] the test system is Carrageenin-Induced Rat Paw Edema. The assay can be described thus: Carrageenin-induced rat paw edema. The format is in vivo. As to conditions: 75 mg/Kg i.p. one hour prior to carrageenin; paw volume three hours after; male Sprague Dawley rats. How it is done:
Charles River male Sprague Dawley rats weighing 90 to 100 grams were used. Inflammation of the left hind paw was induced by a 1% carrageenin solution (0.05 cc), injected into the plantar surface of the paw. The contralateral paw was injected with an equal volume of saline. Drugs were administered 75 mg/Kg i.p. (1 cc/100 grams) one hour prior to paw injection. Three hours following the carrageenin injection the difference in volume of the control and inflamed paw was measured. Each paw was immersed in a well of mercury and the volume of mercury displaced was recorded. Paws were uniformly dipped into the mercury up to the beginning of the hairline. A venous pressure transducer, coupled to an chart recorder, was employed to measure the small volumes of mercury displaced. Each group measurement consists of the average of four rats, each with three separate measurements.

SMILES strings stand for the structures.

As to `O=C(C#Cc1ccc(OCc2ccccc2)cc1)c1ccccc1` [MDL 101,097, 1-phenyl-3-[(4-benzyloxy)phenyl]-2-propyne-1-one], in the assay with Rat PMNL [1], the “effect on fMLP-induced intracellular calcium changes” value is given as “selective concentration-dependent suppression of the second wave of intracellular calcium changes”.

Regarding `O=C(C#Cc1ccncc1)c1ccccc1` [MDL 101,098, 1-phenyl-3-(4-pyridinyl)-2-propyne-1-one], in the assay on Rat PMNL [2] (PMA and OZ stimulation), the “inhibition of superoxide anion production” value was “inhibited in a dose dependent fashion”. In addition, the inhibition at 1 µM in the assay with Rat PMNL [2] (Rattus norvegicus, PMNL, inhibition of superoxide anion production, PMA, CONC 1 uM) is -20.7%.

Regarding `CN(C)c1ccc(C(=O)C#Cc2ccncc2)cc1` [MDL 102,175, 1-(4-dimethylaminophenyl)-3-(4-pyridinyl)-2-propynel-1-one], the “inhibition of release of myeloperoxidase” value in the assay on Rat PMNL [3] is on record as “dose dependent inhibition”.

In the case of `COc1ccc(COc2cccc(C#CC(=O)c3ccccc3)c2)cc1` [MDL 100,225, 1-phenyl-3-[3-(4-methoxybenzyloxy)phenyl]-2-propyne-1-one], the “%Inhibition” value is recorded as 25.3 ± 17.8% in assay [4] (10 mg/Kg i.p.), 33.4 ± 14.6% in assay [4] (30 mg/Kg i.p.), 60.9 ± 11.7% in assay [4] (100 mg/Kg i.p.) and 24.3% ± 10.3% in assay [5].

Usually inhibition stands for the relative decrease from the control value, in per cent. Broadly, the %Inhibition is the drop in the measured response relative to a control, in per cent. A high value points to a strong effect.
